{
  "source": "patent US11969440B2",
  "about": "“Metal (hydr)oxide composite comprising poorly soluble drug, method for manufacturing same, and pharmaceutical composition comprising same” (priority 2020, dated 2024)",
  "key": {"[1]": {"settings": "single oral 40 mg/kg, MgO:HPMC compositions of Comparative Examples 2 to 4, FIG. 41 to 43"}, "[2]": {"settings": "cited from earlier work"}},
  "data": [
    {"compound": "O=c1[nH]cc(F)c(=O)[nH]1", "note": "[Example 5-FU, 5-FU]", "values": [
      {"measurement": "bioavailability of the compound as MgO composite versus the compound alone", "setting": "[1]", "result": "not improved"},
      {"measurement": "solubility in water", "setting": "[2]", "result": 12.2, "unit": "mg/mL"}
    ]}
  ]
}
